Results: the CheMixHub viscosity set
± gives the uncertainty stated by the source.

Experiment: xn = mol fraction of the nth substance listed

CCC(CC)CO + CO
298.15 K, 101.33 kPa
Conditions	viscosity [mPa·s]
x2 = 0.1241	4.806 ± 0.044
x2 = 0.2054	4.143 ± 0.038
x2 = 0.3133	3.38 ± 0.031
x2 = 0.4534	2.454 ± 0.023
x2 = 0.5051	2.214 ± 0.021
x2 = 0.6004	1.744 ± 0.016
x2 = 0.7073	1.33 ± 0.013
x2 = 0.8019	1.041 ± 0.0099
x2 = 0.9015	0.7598 ± 0.0075

Oc1ccccc1Cl + CCN(CC)CC
298 K, 101.33 kPa
Conditions	viscosity [mPa·s]
x1 = 0.074	0.447 ± 0.0089
x1 = 0.305	1.41 ± 0.028
x1 = 0.408	3.58 ± 0.072
x1 = 0.473	7.81 ± 0.16
x1 = 0.552	26.2 ± 0.52
x1 = 0.616	109 ± 2.2
x1 = 0.65	255 ± 5.1
x1 = 0.703	529 ± 11
x1 = 0.72	594 ± 12
x1 = 0.751	451 ± 9
x1 = 0.769	343 ± 6.9
x1 = 0.797	213 ± 4.3
x1 = 0.843	68.9 ± 1.4
x1 = 0.87	34.3 ± 0.69
x1 = 0.901	18.3 ± 0.37
x1 = 0.956	5.91 ± 0.12

CCCCCCCC(=O)O + ClC(Cl)(Cl)Cl
298.15 K, 101 kPa
Conditions	viscosity [mPa·s]
x1 = 0.05	1.011 ± 0.027
x1 = 0.11	1.124 ± 0.029
x1 = 0.16	1.248 ± 0.033
x1 = 0.21	1.38 ± 0.036
x1 = 0.42	2.021 ± 0.053
x1 = 0.52	2.406 ± 0.063
x1 = 0.62	2.867 ± 0.075
x1 = 0.81	3.905 ± 0.1

C=COC(C)=O + Cc1cccc(C)c1
viscosity [mPa·s], 101 kPa
Conditions	x1 = 0.1482	x1 = 0.2434	x1 = 0.3456	x1 = 0.4518	x1 = 0.5741	x1 = 0.6832	x1 = 0.7598	x1 = 0.8817	x1 = 0.9602
303.15 K	0.52 ± 0.007	0.502 ± 0.006	0.483 ± 0.006	0.465 ± 0.006	0.445 ± 0.006	0.428 ± 0.006	0.414 ± 0.005	0.401 ± 0.005	0.392 ± 0.005
313.15 K	0.469 ± 0.006	0.452 ± 0.006	0.434 ± 0.006	0.416 ± 0.005	0.399 ± 0.005	0.383 ± 0.005	0.37 ± 0.005	0.358 ± 0.005	0.35 ± 0.005

CCCN + CCN(CC)CC
303.15 K, 101.33 kPa
Conditions	viscosity [mPa·s]
x2 = 0.1027	0.3371 ± 0.0049
x2 = 0.2061	0.3317 ± 0.0049
x2 = 0.3991	0.3268 ± 0.0049
x2 = 0.495	0.3278 ± 0.0049
x2 = 0.6009	0.331 ± 0.0049
x2 = 0.7911	0.3408 ± 0.005
x2 = 0.8925	0.3499 ± 0.005

C=COC(C)=O + CCO
303.15 K, 101.33 kPa
Conditions	viscosity [mPa·s]
x1 = 0.0998	0.787 ± 0.005
x1 = 0.2001	0.651 ± 0.005
x1 = 0.2995	0.564 ± 0.004
x1 = 0.4007	0.501 ± 0.004
x1 = 0.5002	0.457 ± 0.003
x1 = 0.599	0.425 ± 0.003
x1 = 0.7013	0.402 ± 0.003
x1 = 0.8005	0.386 ± 0.003
x1 = 0.9002	0.378 ± 0.003

CCCCCCCC(=O)O + c1ccccc1
298.15 K, 101 kPa
Conditions	viscosity [mPa·s]
x1 = 0.03	0.638 ± 0.017
x1 = 0.057	0.68 ± 0.018
x1 = 0.087	0.727 ± 0.019
x1 = 0.12	0.781 ± 0.021
x1 = 0.27	1.072 ± 0.028
x1 = 0.35	1.295 ± 0.034
x1 = 0.45	1.591 ± 0.042
x1 = 0.68	2.505 ± 0.065

CCCCOC(C)=O + Cc1ccc(C)cc1
viscosity [mPa·s], 101 kPa
Conditions	298.15 K	308.15 K
x1 = 0.0459	0.615 ± 0.005	0.537 ± 0.005
x1 = 0.1511	0.615 ± 0.005	0.54 ± 0.005
x1 = 0.2505	0.618 ± 0.005	0.543 ± 0.005
x1 = 0.3511	0.621 ± 0.005	0.547 ± 0.005
x1 = 0.4477	0.626 ± 0.005	0.552 ± 0.005
x1 = 0.4948	0.628 ± 0.005	0.555 ± 0.005
x1 = 0.55	0.632 ± 0.005	0.558 ± 0.005
x1 = 0.6515	0.639 ± 0.005	0.565 ± 0.005
x1 = 0.7509	0.647 ± 0.005	0.572 ± 0.005
x1 = 0.8517	0.657 ± 0.005	0.58 ± 0.005
x1 = 0.9445	0.667 ± 0.005	0.589 ± 0.005

CCCN + CCCCN(CCCC)CCCC
303.15 K, 101 kPa
Conditions	viscosity [mPa·s]
x2 = 0.2025	0.5088 ± 0.0057
x2 = 0.4055	0.6949 ± 0.0067
x2 = 0.4953	0.7795 ± 0.0072
x2 = 0.603	0.8793 ± 0.0078
x2 = 0.7931	1.04 ± 0.0088

CC(C)c1ccccc1 + CCCO
viscosity [mPa·s], 101 kPa
Conditions	298.15 K	303.15 K	308.15 K	313.15 K	318.15 K	323.15 K
x1 = 0.013	1.976 ± 0.051	–	1.523 ± 0.039	–	–	–
x1 = 0.0796	1.683 ± 0.043	–	1.334 ± 0.034	–	–	–
x1 = 0.1684	1.406 ± 0.036	–	1.14 ± 0.029	–	–	–
x1 = 0.2504	1.236 ± 0.032	–	1.011 ± 0.026	–	–	–
x1 = 0.3462	1.092 ± 0.028	–	0.896 ± 0.023	–	–	–
x1 = 0.4697	0.956 ± 0.025	–	0.791 ± 0.02	–	–	–
x1 = 0.5994	0.854 ± 0.022	–	0.712 ± 0.018	–	–	–
x1 = 0.7565	0.756 ± 0.02	–	0.657 ± 0.017	–	–	–
x2 = 0.0996	–	0.6838 ± 0.0055	0.6412 ± 0.0052	0.602 ± 0.005	0.5678 ± 0.0047	0.5436 ± 0.0045
x2 = 0.1997	–	0.6995 ± 0.0056	0.6529 ± 0.0052	0.612 ± 0.0049	0.5746 ± 0.0047	0.54 ± 0.0044
x2 = 0.2988	–	0.7297 ± 0.0057	0.6794 ± 0.0053	0.6333 ± 0.005	0.592 ± 0.0047	0.5542 ± 0.0045
x2 = 0.4008	–	0.7751 ± 0.0059	0.7176 ± 0.0055	0.6661 ± 0.0051	0.6202 ± 0.0048	0.5777 ± 0.0045
x2 = 0.5012	–	0.8411 ± 0.0062	0.7731 ± 0.0058	0.7142 ± 0.0054	0.6612 ± 0.005	0.6129 ± 0.0047
x2 = 0.6002	–	0.9284 ± 0.0067	0.847 ± 0.0062	0.7762 ± 0.0057	0.7145 ± 0.0053	0.6596 ± 0.0049
x2 = 0.7002	–	1.046 ± 0.0073	0.9475 ± 0.0067	0.8652 ± 0.0062	0.7897 ± 0.0057	0.7201 ± 0.0053
x2 = 0.8	–	1.205 ± 0.0082	1.086 ± 0.0075	0.982 ± 0.0068	0.8912 ± 0.0063	0.81 ± 0.0057
x2 = 0.8991	–	1.426 ± 0.0095	1.275 ± 0.0085	1.146 ± 0.0077	1.033 ± 0.007	0.9322 ± 0.0064
